Among the data in article PMC6895199, “A new antiviral scaffold for human norovirus identified with computer-aided approaches on the viral polymerase” (Scientific Reports, 2019) are EC50 values, retold here.

The test deals with MNV. As to the kind of experiment: MNV CPE reduction assay (MTS) in RAW 264.7 cells. The conditions noted are these: Norovirus, RAW264.7, in Mus musculus, Table 2, RAW 264.7, range 0.6–100 µM, at least three independent experiments. The format is cell-based, mouse norovirus (MNV-1.CW1). In outline:
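MNV-1.CW1-infected RAW 264.7 cells treated at eight concentrations (0.6–100 µM), 2′-C-methylcytidine as positive control. Viability read by MTS/PMS at OD 498 nm after 2 h; %CPE reduction normalised to uninfected and infected untreated cells, EC50 = concentration protecting 50% of cells from virus-induced CPE.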
The compound `Cc1ccc(C(=O)NC(=S)Nc2ccc(N3CCN(C(=O)c4cccs4)CC3)cc2)cc1` [Compound 52, 4-Methyl-N-((4-(4-(thiophene-2-carbonyl)piperazin-1-yl)phenyl)carbamothioyl)benzamide] had an EC50 of 45.1 ± 10.8 µM. In the case of `O=C(NC(=S)Nc1ccc(N2CCN(C(=O)c3cccs3)CC2)cc1)c1sc2ccccc2c1Cl` [Compound 48, 3-Chloro-N-((4-(4-(thiophene-2-carbonyl)piperazin-1-yl)phenyl)carbamothioyl)benzo[b]thiophene-2-carboxamide, reference compound] it was 58.2 ± 20.7 µM; in that of `O=C(NC(=S)Nc1ccc(N2CCN(C(=O)c3nccs3)CC2)cc1)c1sc2ccccc2c1Cl` [Compound 56, 3-Chloro-N-((4-(4-(thiazole-2-carbonyl)piperazin-1-yl)phenyl)carbamothioyl)benzo[b]thiophene-2-carboxamide], 66.1 ± 12.3 µM.

For orientation: EC50 means the concentration needed to bring the measured effect to its halfway point. Lower therefore signals higher potency in that assay.
